Measurements published in US20240002391A1, “4-ALKOXYPYRROLO[2,1-F][1,2,4]TRIAZINES AND PREPARATION AND USES THEREOF” (BioSplice Therapeutics, Inc., priority 2022, published 2024).

Target: recombinant DYRK1A kinase (Homo sapiens (Human), UniProt Q13627)
Assay: DYRK1A kinase assay (Ser/Thr 18 peptide Z-lyte FRET)
Assay type: biochemical
Details: DYRK1A kinase activity, Z-lyte Ser/Thr 18 peptide, 15 μM ATP; method text calls the value IC50; read-out: EC50 (the source's name)
In short: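 Compounds were tested as 11-point, threefold dilution series starting at 10 μM against recombinant enzyme in a 1 h room-temperature reaction with 15 μM ATP and 4 μM peptide substrate. Phosphorylation is read by protease-coupled FRET, and IC50 values come from curve fitting.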

| SMILES | IC50 |
| --- | --- |
| COc1nc(N[C@@H]2CCN(C(C)=O)CC2(F)F)nn2ccc(-c3cc(F)c4nc(C)n(C(C)C)c4c3)c12 [Compound 550, (R)-1-(3,3-Difluoro-4-((5-(4-fluoro-1-isopropyl-2-methyl-1H-benzo[d]imidazol-6-yl)-4-methoxypyrrolo[2,1-f][1,2,4]triazin-2-yl)amino)piperidin-1-yl)ethan-1-one] | 1.6 nM |
| COc1nc(N[C@@H]2CCN(C3COC3)CC2(F)F)nn2ccc(-c3cc(F)c4nc(C)n(C(C)C)c4c3)c12 [Compound 551, (R)—N-(3,3-Difluoro-1-(oxetan-3-yl)piperidin-4-yl)-5-(4-fluoro-1-isopropyl-2-methyl-1H-benzo[d]imidazol-6-yl)-4-methoxypyrrolo[2,1-f][1,2,4]triazin-2-amine] | 1.6 nM |
| COc1nc(N[C@H]2CC[C@](C)(O)CC2)nn2ccc(-c3ccn4ncnc4c3)c12 [Compound 554, (1r,4r)-4-((5-([1,2,4]Triazolo[1,5-a]pyridin-7-yl)-4-methoxypyrrolo[2,1-f][1,2,4]triazin-2-yl)amino)-1-methylcyclohexan-1-ol] | 7.7 nM |
| CCO[C@H]1C[C@@H](Nc2nc(OC)c3c(-c4ccc5ncnn5c4)ccn3n2)C1 [Compound 555, 5-([1,2,4]Triazolo[1,5-a]pyridin-6-yl)-N-(cis-3-ethoxycyclobutyl)-4-methoxypyrrolo[2,1-f][1,2,4]triazin-2-amine] | 5 nM |
| COc1nc(N[C@H]2C[C@](C)(NC(=O)C3(C#N)CC3)C2)nn2ccc(-c3ccc4ncnn4c3)c12 [Compound 563, N-((1r,3r)-3-((5-([1,2,4]Triazolo[1,5-a]pyridin-6-yl)-4-methoxypyrrolo[2,1-f][1,2,4]triazin-2-yl)amino)-1-methylcyclobutyl)-1-cyanocyclopropane-1-carboxamide] | 1 nM |
| CC[C@]1(O)CC[C@H](Nc2nc(OC)c3c(-c4ccc5ncnn5c4)ccn3n2)CC1 [Compound 567, (1r,4r)-4-((5-([1,2,4]Triazolo[1,5-a]pyridin-6-yl)-4-methoxypyrrolo[2,1-f][1,2,4]triazin-2-yl)amino)-1-ethylcyclohexan-1-ol] | 3.7 nM |
| CCN1CC[C@@H](Nc2nc(OC)c3c(-c4ccc5ncnn5c4)ccn3n2)C(F)(F)C1 [Compound 577, (R)-5-([1,2,4]Triazolo[1,5-a]pyridin-6-yl)-N-(1-ethyl-3,3-difluoropiperidin-4-yl)-4-methoxypyrrolo[2,1-f][1,2,4]triazin-2-amine] | 6.4 nM |
| COc1nc(N[C@@H]2CCN(C3COC3)CC2(F)F)nn2ccc(-c3ccc4ncnn4c3)c12 [Compound 578, (R)-5-([1,2,4]Triazolo[1,5-a]pyridin-6-yl)-N-(3,3-difluoro-1-(oxetan-3-yl)piperidin-4-yl)-4-methoxypyrrolo[2,1-f][1,2,4]triazin-2-amine] | 8 nM |
| COc1nc(NC23CCC(O)(CC2)C3)nn2ccc(-c3ccc4ncnn4c3)c12 [Compound 582, 4-((5-([1,2,4]Triazolo[1,5-a]pyridin-6-yl)-4-methoxypyrrolo[2,1-f][1,2,4]triazin-2-yl)amino)bicyclo[2.2.1]heptan-1-ol] | 40.9 nM |
| COc1nc(N[C@H]2C[C@](C)(NC(C)=O)C2)nn2cc(F)c(-c3ccc4ncnn4c3)c12 [Compound 585, N-((1r,3r)-3-((5-([1,2,4]Triazolo[1,5-a]pyridin-6-yl)-6-fluoro-4-methoxypyrrolo[2,1-f][1,2,4]triazin-2-yl)amino)-1-methylcyclobutyl)acetamide] | 2.2 nM |
| COc1nc(N[C@H]2CC[C@](C)(O)CC2)nn2cc(F)c(-c3ccc4ncnn4c3)c12 [Compound 589, (1r,4r)-4-((5-([1,2,4]Triazolo[1,5-a]pyridin-6-yl)-6-fluoro-4-methoxypyrrolo-[2,1-f][1,2,4]triazin-2-yl)amino)-1-methylcyclohexan-1-ol] | 0.9 nM |
| COc1nc(N[C@H]2CC[C@](C)(O)CC2)nn2ccc(-c3ccc4nc(C)nn4c3)c12 [Compound 622, (1r,4r)-4-((4-Methoxy-5-(2-methyl-[1,2,4]triazolo[1,5-a]pyridin-6-yl)pyrrolo[2,1-f][1,2,4]triazin-2-yl)amino)-1-methylcyclohexan-1-ol] | 14.1 nM |
| COc1nc(NC[C@@H]2CNCCO2)nn2ccc(-c3ccc4nnn(C)c4c3)c12 [Compound 623, (S)-4-Methoxy-5-(1-methyl-1H-benzo[d][1,2,3]triazol-6-yl)-N-(morpholin-2-ylmethyl)pyrrolo[2,1-f][1,2,4]triazin-2-amine] | 5.1 nM |
| CCN1CC[C@@H](Nc2nc(OC)c3c(-c4ccc5nnn(C)c5c4)ccn3n2)C(F)(F)C1 [Compound 627, (R)—N-(1-Ethyl-3,3-difluoropiperidin-4-yl)-4-methoxy-5-(1-methyl-1H-benzo[d][1,2,3]triazol-6-yl)pyrrolo[2,1-f][1,2,4]triazin-2-amine] | 3.9 nM |
| COc1nc(N[C@H]2CCN(C)C[C@H]2F)nn2cc(F)c(-c3ccc4nnn(C)c4c3)c12 [Compound 630, 6-Fluoro-N-((3R,4S)-3-fluoro-1-methylpiperidin-4-yl)-4-methoxy-5-(1-methyl-1H-benzo[d][1,2,3]triazol-6-yl)pyrrolo[2,1-f][1,2,4]triazin-2-amine] | 4.9 nM |
| CCn1nnc2ccc(-c3ccn4nc(N[C@H]5CCN(C6COC6)C[C@H]5F)nc(OC)c34)cc21 [Compound 646, 5-(1-Ethyl-1H-benzo[d][1,2,3]triazol-6-yl)-N-((3R,4S)-3-fluoro-1-(oxetan-3-yl)piperidin-4-yl)-4-methoxypyrrolo[2,1-f][1,2,4]triazin-2-amine] | 3.4 nM |
| COc1nc(N[C@H]2CCN(C(C)=O)C[C@H]2F)nn2ccc(-c3ccc4nnn(CCF)c4c3)c12 [Compound 664, 1-((3R,4S)-3-Fluoro-4-((5-(1-(2-fluoroethyl)-1H-benzo[d][1,2,3]triazol-6-yl)-4-methoxypyrrolo[2,1-f][1,2,4]triazin-2-yl)amino)piperidin-1-yl)ethan-1-one] | 1.6 nM |
| COc1nc(N[C@H]2CCN(C3COC3)C[C@H]2F)nn2ccc(-c3ccc4nnn(CCF)c4c3)c12 [Compound 666, N-((3R,4S)-3-Fluoro-1-(oxetan-3-yl)piperidin-4-yl)-5-(1-(2-fluoroethyl)-1H-benzo[d][1,2,3]triazol-6-yl)-4-methoxypyrrolo[2,1-f][1,2,4]triazin-2-amine] | 1.1 nM |

Next, values leading:

| IC50 | SMILES |
| --- | --- |
| 1.1 nM | COc1nc(N[C@H]2C[C@@](C)(NC(=O)C3(C#N)CC3)C2)nn2ccc(-c3ccc4ncnn4c3)c12 [Compound 562, N-((1s,3s)-3-((5-([1,2,4]Triazolo[1,5-a]pyridin-6-yl)-4-methoxypyrrolo[2,1-f][1,2,4]triazin-2-yl)amino)-1-methylcyclobutyl)-1-cyanocyclopropane-1-carboxamide] |
| 6.9 nM | COc1nc(N[C@@H]2CCNCC2(F)F)nn2ccc(-c3ccc4ncnn4c3)c12 [Compound 575, (R)-5-([1,2,4]Triazolo[1,5-a]pyridin-6-yl)-N-(3,3-difluoropiperidin-4-yl)-4-methoxypyrrolo[2,1-f][1,2,4]triazin-2-amine] |
| 7.3 nM | COc1nc(N[C@@H]2CCN(C)CC2(F)F)nn2ccc(-c3ccc4ncnn4c3)c12 [Compound 576, (R)-5-([1,2,4]Triazolo[1,5-a]pyridin-6-yl)-N-(3,3-difluoro-1-methylpiperidin-4-yl)-4-methoxypyrrolo[2,1-f][1,2,4]triazin-2-amine] |
| 2.9 nM | C[C@]1(O)CC[C@H](Nc2nc(OCC(F)F)c3c(-c4ccc5ncnn5c4)ccn3n2)CC1 [Compound 616, (1r,4r)-4-((5-([1,2,4]Triazolo[1,5-a]pyridin-6-yl)-4-(2,2-difluoroethoxy)pyrrolo [2,1-f][1,2,4]triazin-2-yl)amino)-1-methylcyclohexan-1-ol] |
| 35.4 nM | C[C@]1(O)CC[C@H](Nc2nc(OC3COC3)c3c(-c4ccc5ncnn5c4)ccn3n2)CC1 [Compound 621, (1r,4r)-4-((5-([1,2,4]Triazolo[1,5-a]pyridin-6-yl)-4-(oxetan-3-yloxy)pyrrolo[2,1-f][1,2,4]triazin-2-yl)amino)-1-methylcyclohexan-1-ol] |
| 8.6 nM | CCO[C@H]1C[C@@H](Nc2nc(OC)c3c(-c4ccc5nnn(C)c5c4)ccn3n2)C1 [Compound 624, N-(cis-3-Ethoxycyclobutyl)-4-methoxy-5-(1-methyl-1H-benzo[d][1,2,3]triazol-6-yl)pyrrolo[2,1-f][1,2,4]triazin-2-amine] |
| 2.7 nM | COc1nc(N[C@@H]2CCN(C)CC2(F)F)nn2ccc(-c3ccc4nnn(C)c4c3)c12 [Compound 626, (R)—N-(3,3-Difluoro-1-methylpiperidin-4-yl)-4-methoxy-5-(1-methyl-1H-benzo[d][1,2,3]triazol-6-yl)pyrrolo[2,1-f][1,2,4]triazin-2-amine] |
| 6.3 nM | COc1nc(N[C@@H]2CCN(C3COC3)CC2(F)F)nn2ccc(-c3ccc4nnn(C)c4c3)c12 [Compound 628, (R)—N-(3,3-Difluoro-1-(oxetan-3-yl)piperidin-4-yl)-4-methoxy-5-(1-methyl-1H-benzo[d][1,2,3]triazol-6-yl)pyrrolo[2,1-f][1,2,4]triazin-2-amine] |
| < 0.2 nM | COc1nc(N[C@@H]2CN(C(C)=O)C[C@@H]2F)nn2ccc(-c3ccc4nnn(CCF)c4c3)c12 [Compound 660, 1-((3S,4R)-3-Fluoro-4-((5-(1-(2-fluoroethyl)-1H-benzo[d][1,2,3]triazol-6-yl)-4-methoxypyrrolo[2,1-f][1,2,4]triazin-2-yl)amino)pyrrolidin-1-yl)ethan-1-one] |
| 1.6 nM | COc1nc(N[C@@H]2CCN(C(C)=O)CC2(F)F)nn2ccc(-c3ccc4nnn(CCF)c4c3)c12 [Compound 669, (R)-1-(3,3-Difluoro-4-((5-(1-(2-fluoroethyl)-1H-benzo[d][1,2,3]triazol-6-yl)-4-methoxypyrrolo[2,1-f][1,2,4]triazin-2-yl)amino)piperidin-1-yl)ethan-1-one] |
